For test [1], the target named is T1, cannabinoid receptor 1 (CB1) (Homo sapiens, UniProt P21554). As to the kind of experiment: GTPase-Glo GTP turnover assay with purified CB1 and Gi1, […] ligand. The format is biochemical.
Target sequence in this assay (P21554 whole entry): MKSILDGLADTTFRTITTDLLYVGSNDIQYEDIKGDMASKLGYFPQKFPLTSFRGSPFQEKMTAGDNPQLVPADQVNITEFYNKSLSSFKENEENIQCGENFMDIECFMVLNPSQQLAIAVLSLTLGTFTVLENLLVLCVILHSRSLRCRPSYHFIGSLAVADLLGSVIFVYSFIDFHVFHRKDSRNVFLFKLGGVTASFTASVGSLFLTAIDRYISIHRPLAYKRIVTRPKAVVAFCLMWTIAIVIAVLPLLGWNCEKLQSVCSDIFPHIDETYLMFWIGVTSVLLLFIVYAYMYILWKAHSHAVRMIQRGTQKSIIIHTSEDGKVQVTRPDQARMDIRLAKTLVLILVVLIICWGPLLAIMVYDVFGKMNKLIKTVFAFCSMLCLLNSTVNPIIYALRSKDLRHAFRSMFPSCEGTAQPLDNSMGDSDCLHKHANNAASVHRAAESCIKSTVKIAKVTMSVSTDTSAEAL
Target sequence in this assay (P63096 2-354 partner): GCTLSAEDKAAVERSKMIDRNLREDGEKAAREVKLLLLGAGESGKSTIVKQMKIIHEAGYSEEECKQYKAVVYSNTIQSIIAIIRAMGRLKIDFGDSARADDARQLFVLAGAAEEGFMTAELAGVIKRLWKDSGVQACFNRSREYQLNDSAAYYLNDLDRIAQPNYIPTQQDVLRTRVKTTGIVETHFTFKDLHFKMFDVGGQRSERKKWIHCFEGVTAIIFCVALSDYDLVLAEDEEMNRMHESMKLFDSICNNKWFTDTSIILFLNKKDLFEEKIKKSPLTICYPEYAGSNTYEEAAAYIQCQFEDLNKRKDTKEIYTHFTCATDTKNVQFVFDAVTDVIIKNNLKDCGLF
Test [2] deals with T1, cannabinoid receptor 1 (CB1). As to the kind of experiment: CB1 radioligand binding assay.
Target sequence in this assay (P21554 whole entry): as the sequence (P21554 whole entry) above

The text below walks through data of publication PMC9400797 (Cell, 2022).

A word on the IC50: it is the concentration needed to halve the response being measured. The low end stands for higher potency, the high end for lower potency.

Regarding `C[C@H](NC(=O)C(C)(C)Oc1ccc(C(F)(F)F)cn1)[C@@H](Cc1ccc(Cl)cc1)c1cccc(C#N)c1` [taranabant], the “GTPase-Glo GTP turnover assay with purified CB1 and Gi1, 20 uM ligand” value in test [1] is “GTPase-Glo assay reveals rimonabant and taranabant to decrease GTP turnover compared with Apo”.

For BODIPY517/547-genistein, in test [2], the IC50 came to 375 nM.
